The target of assay [1] is T1, recombinant human CLK3 (Homo sapiens, UniProt P49761).
T1 construct: purchased Thermo Fisher Scientific PV3826
The assay can be described thus: CLK3 kinase assay (LANCE Ultra). It counts as biochemical. Conditions: CLK3 0.5 nM, ATP 300 μM, 3 hours at 30° C. In outline:
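Recombinant human CLK3 (0.5 nM) with ULight-CREBtide (50 nM) and 300 μM ATP, 3 h at 30 °C in kinase buffer; EDTA stop, then Eu-anti-phospho-CREB antibody (2 nM, 1 h RT), TR-FRET read at 665/620 nm. Inhibition normalized to DMSO and no-ATP wells; IC50 from 4-parameter fit, ten 1:3 concentrations in duplicate.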

Assay [2] has as its system MDA-MB-231 cells. The assay can be described thus: MDA-MB-231 proliferation assay. In kind it is cell-based. Conditions: Homo sapiens, MDA-MB-231, 72 h, YO-PRO-1 Iodide readout. An outline of the steps: (§1)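 Cells seeded at 750 per well, treated next day for 72 h at 37 °C with 0.5% final DMSO. Cell number read by YO-PRO-1 fluorescence after lysis, normalized to DMSO (100%) and time-zero cells (0%). GI50 from 4-parameter logistic fit, maximum constrained to 100%.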

The test system of assay [3] is CAL-51 cells. The assay can be described thus: CAL-51 proliferation assay. It counts as cell-based. Conditions: Homo sapiens, CAL-51, 72 h, YO-PRO-1 Iodide readout. In outline:
as §1

Here are results for 25 compounds from patent US20260159486A1, “BENZO[H]QUINAZOLINE-4-AMINE DERIVATIVES FOR THE TREATMENT OF CANCER” (Redona Therapeutics, Inc., priority 2021, published 2026).

What is called IC50 is the concentration that gives 50% inhibition. What is called GI50 is the concentration at which growth is held to half of that of the control.

T1 sequence (P49761 whole entry): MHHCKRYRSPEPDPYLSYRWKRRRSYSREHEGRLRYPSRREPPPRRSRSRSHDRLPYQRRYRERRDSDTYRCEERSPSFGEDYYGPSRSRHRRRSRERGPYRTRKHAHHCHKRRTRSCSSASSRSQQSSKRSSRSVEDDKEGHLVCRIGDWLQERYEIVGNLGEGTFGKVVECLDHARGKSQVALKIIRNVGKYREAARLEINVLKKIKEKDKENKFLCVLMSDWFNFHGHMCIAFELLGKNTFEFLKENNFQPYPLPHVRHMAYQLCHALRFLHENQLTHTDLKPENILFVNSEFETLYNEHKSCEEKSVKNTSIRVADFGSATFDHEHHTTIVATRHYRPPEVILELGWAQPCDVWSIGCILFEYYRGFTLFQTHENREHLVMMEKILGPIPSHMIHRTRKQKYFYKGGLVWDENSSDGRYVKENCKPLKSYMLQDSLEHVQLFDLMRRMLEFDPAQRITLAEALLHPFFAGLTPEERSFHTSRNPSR

Turning to `COc1ccc2c(c1NCC(O)CO)CC(C)(C)c1c(N)ncnc1-2` (stereo not drawn) [Example 27, 3-[(4-amino-8-methoxy-5,5-dimethyl-6H-benzo[h]quinazolin-7-yl)amino]propane-1,2-diol], the IC50 in assay [1] was 0.03 to 0.1 µM. For the same compound, the GI50 in assay [2] and in assay [3] was 0.1 to 2 µM throughout.
Take `CC1(C)Cc2c(ccc(O[C@H]3CC[C@H](N)CC3)c2NCCO)-c2ncnc(N)c21` [Example 14, 2-[[4-amino-8-(trans-4-aminocyclohexoxy)-5,5-dimethyl-6H-benzo[h]quinazolin-7-yl]amino]ethanol]: the IC50 in assay [1] was less than 0.03 µM. In addition, the GI50 in assay [2] and in assay [3] was 0.1 to 2 µM in each case.
Regarding `COCCCc1c(OC)ccc2c1CC(C)(C)c1c(N)ncnc1-2` [Example 61, 8-methoxy-7-(3-methoxypropyl)-5,5-dimethyl-6H-benzo[h]quinazolin-4-amine], the IC50 in assay [1] lay within 0.101 to 1 µM. In addition, the GI50 in assay [2] and in assay [3] was 0.1 to 2 µM each time.
Consider `CNc1c(O[C@H]2CC[C@H](N)CC2)ccc2c1CC(C)(C)c1c(N)ncnc1-2` [Example 68, 8-(trans-4-aminocyclohexoxy)-N7,5,5-trimethyl-6H-benzo[h]quinazoline-4,7-diamine], for which, in assay [1], the IC50 is 0.03 to 0.1 µM. In addition, the GI50 is 0.1 to 2 µM in assay [2] and less than 0.1 µM in assay [3].
Taken in the same sequence, the figures for `CN(CCS(C)(=O)=O)c1c(O[C@H]2CC[C@@H](N)CC2)ccc2c1CC(C)(C)c1c(N)ncnc1-2` [Example 32, 8-(cis-4-aminocyclohexoxy)-N7,5,5-trimethyl-N7-(2-methylsulfonylethyl)-6H-benzo[h]quinazoline-4,7-diamine] were less than 0.03 µM, more than 2 µM and more than 2 µM.
Taken in the same sequence, the figures for `CN(CCO)c1c(O[C@H]2CC[C@@H](N)CC2)ccc2c1CC1(CCCC1)c1c(N)ncnc1-2` [Example 83, 2-[[4-amino-8-(cis-4-aminocyclohexoxy)spiro[6H-benzo[h]quinazoline-5,1′-cyclopentane]-7-yl]-methyl-amino]ethanol] were less than 0.03 µM, less than 0.1 µM and less than 0.1 µM.
Taken in the same sequence, the figures for `CN(CCC(=O)O)c1c(O[C@H]2CC[C@H](N)CC2)ccc2c1CC(C)(C)c1c(N)ncnc1-2` [Example 85, 3-[[4-amino-8-(trans-4-aminocyclohexoxy)-5,5-dimethyl-6H-benzo[h]quinazolin-7-yl]-methyl-amino]propanoic acid] were 0.03 to 0.1 µM, more than 2 µM and more than 2 µM.
As to `COCCNc1c(O[C@H]2CC[C@@H](N)CC2)ccc2c1CC1(CCCC1)c1c(N)ncnc1-2` [Example 87, 8-(cis-4-aminocyclohexoxy)-N7-(2-methoxyethyl)spiro[6H-benzo[h]quinazoline-5,1′-cyclopentane]-4,7-diamine], in assay [1], the IC50 lay in the range of 0.03 to 0.1 µM. Further, the GI50 in assay [2] and in assay [3] was 0.1 to 2 µM each time.
With `CN(CCC(C)(C)O)c1c(O[C@H]2CC[C@H](N)CC2)ccc2c1CC(C)(C)c1c(N)ncnc1-2` [Example 111, 4-[[4-amino-8-(trans-4-aminocyclohexoxy)-5,5-dimethyl-6H-benzo[h]quinazolin-7-yl]-methyl-amino]-2-methyl-butan-2-ol], the IC50 in assay [1] lay in the range of 0.101 to 1 µM. The GI50 in assay [2] and in assay [3] was 0.1 to 2 µM in each case.
`CC1(C)Cc2c(ccc(O[C@H]3CC[C@H](N)CC3)c2NCC#N)-c2ncnc(N)c21` [Example 35, 2-[[4-amino-8-(trans-4-aminocyclohexoxy)-5,5-dimethyl-6H-benzo[h]quinazolin-7-yl]amino]acetonitrile]: the IC50 in assay [1] fell in the range of 0.03 to 0.1 µM. For the same compound, the GI50 in assay [2] and in assay [3] was 0.1 to 2 µM in each case.
Consider `CC1(C)Cc2c(ccc(O[C@H]3CC[C@H](N)CC3)c2C(=O)NCC#N)-c2ncnc(N)c21` [Example 90, 4-amino-8-(trans-4-aminocyclohexoxy)-N-(cyanomethyl)-5,5-dimethyl-6H-benzo[h]quinazoline-7-carboxamide], for which the IC50 in assay [1] was less than 0.03 µM. Also, the GI50 in assay [2] and in assay [3] was 0.1 to 2 µM each time.
With `COC1CCN(c2c(O[C@H]3CC[C@H](N)CC3)ccc3c2CC(C)(C)c2c(N)ncnc2-3)C1` (single isomer, unassigned) [Example 63, 8-(trans-4-aminocyclohexoxy)-7-(3-methoxypyrrolidin-1-yl)-5,5-dimethyl-6H-benzo[h]quinazolin-4-amine], the IC50 in assay [1] was in the range of 0.03 to 0.1 µM. The GI50 in assay [2] and in assay [3] was 0.1 to 2 µM each time.
For the compound `CN(CCO)c1c(O[C@H]2CC[C@H](N)CC2)ccc2c1CC1(CCCC1)c1c(N)ncnc1-2` [Example 59, 2-[[4-amino-8-(4-trans-aminocyclohexoxy)spiro[6H-benzo[h]quinazoline-5,1′-cyclopentane]-7-yl]-methyl-amino]ethanol], the IC50 in assay [1] is less than 0.03 µM. In addition, the GI50 was 0.1 to 2 µM in assay [2] and less than 0.1 µM in assay [3].
`CN(CCN)c1c(O[C@H]2CC[C@H](N)CC2)ccc2c1CC(C)(C)c1c(N)ncnc1-2` [Example 80, 8-(trans-4-aminocyclohexoxy)-N7-(2-aminoethyl)-N7,5,5-trimethyl-6H-benzo[h]quinazoline-4,7-diamine]: the IC50 in assay [1] was less than 0.03 µM. Also, the GI50 in assay [2] and in assay [3] was 0.1 to 2 µM in each case.
As to `CN(CCOC(F)(F)F)c1c(O[C@H]2CC[C@H](N)CC2)ccc2c1CC(C)(C)c1c(N)ncnc1-2` [Example 47, 8-(trans-4-aminocyclohexoxy)-N7,5,5-trimethyl-N7-[2-(trifluoromethoxy)ethyl]-6H-benzo[h]quinazoline-4,7-diamine], the 50% inhibitory concentration (IC50) in assay [1] was 0.03 to 0.1 µM. For the same compound, the results for the GI50 in assay [2] and in assay [3] were 0.1 to 2 µM and less than 0.1 µM, respectively.
Taken in the same sequence, the figures for `CN(Cc1ccncc1)c1c(O[C@H]2CC[C@H](N)CC2)ccc2c1CC(C)(C)c1c(N)ncnc1-2` [Example 101, 8-(trans-4-aminocyclohexoxy)-N7,5,5-trimethyl-N7-(4-pyridylmethyl)-6H-benzo[h]quinazoline-4,7-diamine] were 0.101 to 1 µM, 0.1 to 2 µM and 0.1 to 2 µM.
Taken in the same sequence, the figures for `CC1(C)Cc2c(ccc(O[C@H]3CC[C@H](N)CC3)c2NS(=O)(=O)CCO)-c2ncnc(N)c21` [Example 42, N-[4-amino-8-(trans-4-aminocyclohexoxy)-5,5-dimethyl-6H-benzo[h]quinazolin-7-yl]-2-hydroxy-ethanesulfonamide] were 0.03 to 0.1 µM, more than 2 µM and more than 2 µM.
Taken in the same sequence, the figures for `CC(=O)NCCN(C)c1c(O[C@H]2CC[C@H](N)CC2)ccc2c1CC(C)(C)c1c(N)ncnc1-2` [Example 38, N-[2-[[4-amino-8-(trans-4-aminocyclohexoxy)-5,5-dimethyl-6H-benzo[h]quinazolin-7-yl]-methyl-amino]ethyl]acetamide] were 0.03 to 0.1 µM, more than 2 µM and 0.1 to 2 µM.
On to `CC1(C)Cc2c(ccc(O[C@H]3CC[C@H](N)CC3)c2N2CCOCC2)-c2ncnc(N)c21` [Example 10, 8-(trans-4-aminocyclohexoxy)-5,5-dimethyl-7-morpholino-6H-benzo[h]quinazolin-4-amine], for which the IC50 in assay [1] is 0.03 to 0.1 µM. In addition, the GI50 in assay [2] and in assay [3] was 0.1 to 2 µM in each case.
For the compound `CN(CC(C)(C)C#N)c1c(O[C@H]2CC[C@H](N)CC2)ccc2c1CC(C)(C)c1c(N)ncnc1-2` [Example 91, 3-[[4-amino-8-(trans-4-aminocyclohexoxy)-5,5-dimethyl-6H-benzo[h]quinazolin-7-yl]-methyl-amino]-2,2-dimethyl-propanenitrile], the IC50 in assay [1] was less than 0.03 µM. Also, the GI50 in assay [2] and in assay [3] was less than 0.1 µM in each case.
For `CN(Cc1cccnc1)c1c(O[C@H]2CC[C@H](N)CC2)ccc2c1CC(C)(C)c1c(N)ncnc1-2` [Example 107, 8-(trans-4-aminocyclohexoxy)-N7,5,5-trimethyl-N7-(3-pyridylmethyl)-6H-benzo[h]quinazoline-4,7-diamine], in assay [1], the IC50 was 0.101 to 1 µM. Besides, the GI50 in assay [2] and in assay [3] was 0.1 to 2 µM in each case.
For the compound `CC1(C)Cc2c(ccc(Br)c2N2CCC(C#N)C2)-c2ncnc(N)c21` (stereo not drawn) [Example 120, 1-(4-amino-8-bromo-5,5-dimethyl-6H-benzo[h]quinazolin-7-yl)pyrrolidine-3-carbonitrile], the IC50 in assay [1] is 0.101 to 1 µM. In addition, the GI50 in assay [2] and in assay [3] was 0.1 to 2 µM in each case.
Turning to `CC1(C)Cc2c(ccc3c2NCCO3)-c2ncnc(N)c21` [Example 3, 6,6-dimethyl-2,3,4,5-tetrahydroquinazolino[7,8-f][1,4]benzoxazin-7-amine], in assay [1], the IC50 was in the range of 0.101 to 1 µM. Further, the GI50 in assay [2] was more than 2 µM; in assay [3] it was 0.1 to 2 µM.
As for `COc1ccc2c(c1N)CC(C)(C)c1c(N)ncnc1-2` [Example 2, 8-methoxy-5,5-dimethyl-6H-benzo[h]quinazoline-4,7-diamine], in assay [1], the IC50 was 0.03 to 0.1 µM. The GI50 in assay [2] and in assay [3] was 0.1 to 2 µM in each case.
On to `CN(CCC#N)c1c(N2CCNCC2)ccc2c1CC(C)(C)c1c(N)ncnc1-2` [Example 125, 3-[(4-amino-5,5-dimethyl-8-piperazin-1-yl-6H-benzo[h]quinazolin-7-yl)-methyl-amino]propanenitrile], for which, in assay [1], the IC50 is less than 0.03 µM. In addition, the GI50 in assay [2] and in assay [3] was less than 0.1 µM throughout.
